Values of other authors as cited in patent publication US7390507B2, “Compositions and methods for the treatment of radiation burns and other traumatic skin conditions” (priority 2004, dated 2008).

Key:
[1] = in vivo

O=C(O)CCCCC1CCSS1 (stereo not drawn) [Alpha-Lipoic Acid]
effect on skin ageing / wrinkles [1]: some effect

NCCCNCCSP(=O)(O)O [amifostine]
dermato-cytoprotective effect (retrospective analysis): significant dermato-cytoprotective effect

O=C1O[C@H]([C@@H](O)CO)C(O)=C1O [topical Vitamin C, Vitamin C]
improvement in the results of irradiated breast tissue (human, in vivo): without improvement
